Laboratory results: US20180244611A1, “Modulators of the Cystic Fibrosis Transmembrane Conductance Regulator Protein and Methods of Use” (AbbVie S.à.r.l., priority 2017, published 2018)

Experiments:
[1] = target: T1, F508delCFTR (Homo sapiens, UniProt P13569, DEL508-508); experiment: Cell Surface Expression-Horse Radish Peroxidase (CSE-HRP) assay, test compound without co-corrector; type: cell-based; conditions: for Emax: maximum at any tested concentration, normalized to positive control, without co-corrector; for EC50: test compound without co-corrector;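 for Emax: percent of on-plate 2 µM positive control corrector response over DMSO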
T1 construct: expressed in transfected cells; host or cells: CFBE41o- human lung-derived epithelial cells (CFBE41o-F508delCFTR-HRP), doxycycline-inducible
T1 sequence (P13569 with tags, fused parts or gaps DEL508-508): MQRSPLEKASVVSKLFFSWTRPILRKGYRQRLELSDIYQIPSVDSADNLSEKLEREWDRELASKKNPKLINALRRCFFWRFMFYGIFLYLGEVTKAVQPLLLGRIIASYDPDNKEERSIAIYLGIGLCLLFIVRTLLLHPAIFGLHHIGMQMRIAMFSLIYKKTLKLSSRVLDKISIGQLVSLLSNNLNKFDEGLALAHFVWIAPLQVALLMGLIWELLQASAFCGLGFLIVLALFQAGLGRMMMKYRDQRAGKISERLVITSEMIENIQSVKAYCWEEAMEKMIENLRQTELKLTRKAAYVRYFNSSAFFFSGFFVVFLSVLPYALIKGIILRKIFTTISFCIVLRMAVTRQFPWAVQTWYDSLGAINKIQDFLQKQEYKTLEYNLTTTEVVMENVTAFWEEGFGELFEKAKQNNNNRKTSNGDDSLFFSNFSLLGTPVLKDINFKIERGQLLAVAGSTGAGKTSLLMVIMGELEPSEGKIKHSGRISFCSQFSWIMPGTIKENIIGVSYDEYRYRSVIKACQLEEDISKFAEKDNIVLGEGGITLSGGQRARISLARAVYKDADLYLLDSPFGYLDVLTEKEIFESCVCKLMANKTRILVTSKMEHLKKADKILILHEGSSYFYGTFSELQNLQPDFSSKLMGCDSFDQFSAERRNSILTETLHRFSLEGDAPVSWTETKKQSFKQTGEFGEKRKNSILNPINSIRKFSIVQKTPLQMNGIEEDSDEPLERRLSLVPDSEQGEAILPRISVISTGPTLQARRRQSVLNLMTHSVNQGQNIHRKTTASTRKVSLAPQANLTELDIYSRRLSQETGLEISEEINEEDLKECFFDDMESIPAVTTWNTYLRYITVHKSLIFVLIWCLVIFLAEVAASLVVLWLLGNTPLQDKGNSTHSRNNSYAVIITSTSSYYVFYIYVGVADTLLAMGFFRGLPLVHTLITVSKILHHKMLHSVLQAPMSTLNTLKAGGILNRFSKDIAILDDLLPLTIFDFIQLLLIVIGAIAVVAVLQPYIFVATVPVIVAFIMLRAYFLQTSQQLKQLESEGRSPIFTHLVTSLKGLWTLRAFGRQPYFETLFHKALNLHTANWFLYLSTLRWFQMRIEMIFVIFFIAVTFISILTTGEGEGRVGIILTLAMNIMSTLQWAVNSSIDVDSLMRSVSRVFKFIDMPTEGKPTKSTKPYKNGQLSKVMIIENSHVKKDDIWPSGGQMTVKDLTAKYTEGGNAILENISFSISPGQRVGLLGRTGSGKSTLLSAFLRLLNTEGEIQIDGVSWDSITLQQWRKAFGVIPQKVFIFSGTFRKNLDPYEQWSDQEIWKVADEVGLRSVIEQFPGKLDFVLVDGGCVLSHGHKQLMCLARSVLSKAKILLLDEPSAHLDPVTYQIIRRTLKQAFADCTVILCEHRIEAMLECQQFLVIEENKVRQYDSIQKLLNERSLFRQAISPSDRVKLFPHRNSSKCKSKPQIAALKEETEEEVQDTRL
Summary of the method: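 Compound without co-corrector was tested at eight 3-fold concentrations, top 20 μM, for 18-24 h at 33° C on doxycycline-induced (0.5 μg/mL, 72 h) CFBE41o- F508delCFTR-HRP cells. After DPBS washes, luminol luminescence gave % activity relative to on-plate positive control minus DMSO; EC50 came from triplicate-plate sigmoidal fitting.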

[2] = target: T1, F508delCFTR; experiment: Cell Surface Expression-Horse Radish Peroxidase (CSE-HRP) assay, test compound with co-corrector; type: cell-based; conditions: with 2 μM co-corrector; for Maximum % activity (with co-corrector): maximum at any tested concentration, normalized to positive control;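 for Maximum % activity (with co-corrector): percent of 2 µM positive control corrector over DMSO; co-corrector is that same compound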
Summary of the method: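 Surface-expression read-out: luminol luminescence from an HRP tag in the fourth exofacial loop of F508delCFTR, in doxycycline-induced (0.5 μg/mL, 72 h) CFBE41o- cells. Compound plus 2 μM co-corrector added for 18-24 h at 33° C., 8-point 3-fold series up to 20 μM. EC50 from a sigmoidal fit with variable Hill slope, normalised to positive control, triplicate plates.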

Row | Structure (SMILES) | Emax [1] | EC50 [1] | Maximum % activity (with co-corrector) [2] | EC50 [2]
1 | COc1ccccc1S(=O)(=O)NC(=O)C1CCc2c(OC)cccc21 (stereo not drawn) [III-12] | < 50% | ≥ 10 µM | + (<150) | 3 to 10 µM
2 | COc1cccc2c1CCC2C(=O)NS(=O)(=O)c1ccc(C)cn1 (stereo not drawn) [III-13] | < 50% | ≥ 10 µM | + (<150) | ≥ 10 µM
3 | COc1cccc2c1CCC2C(=O)NS(=O)(=O)C1CCOCC1 (stereo not drawn) [III-14] | < 50% | ≥ 10 µM | + (<150) | ≥ 10 µM
4 | COCCCS(=O)(=O)NC(=O)C1CCc2c(OC)cccc21 (stereo not drawn) [III-15] | < 50% | ≥ 10 µM | + (<150) | ≥ 10 µM
5 | COCCS(=O)(=O)NC(=O)C1CCc2c(OC)cccc21 (stereo not drawn) [III-16] | < 50% | ≥ 10 µM | + (<150) | ≥ 10 µM
6 | CCCS(=O)(=O)NC(=O)C1CCc2c(OC)cccc21 (stereo not drawn) [III-17] | < 50% | ≥ 10 µM | + (<150) | ≥ 10 µM
7 | COc1ccccc1S(=O)(=O)NC(=O)C1CCc2c(Cl)cccc21 (stereo not drawn) [III-18] | < 50% | ≥ 10 µM | + (<150) | ≥ 10 µM
8 | Cc1ccc(S(=O)(=O)NC(=O)C2CCc3c(Cl)cccc32)nc1 (stereo not drawn) [III-19] | < 50% | ≥ 10 µM | + (<150) | ≥ 10 µM
9 | COc1cccc2c1CCC2C(=O)NS(=O)(=O)c1ccc(O)cc1 (stereo not drawn) [III-20] | < 50% | ≥ 10 µM | + (<150) | ≥ 10 µM
10 | COc1cccc2c1CCC2C(=O)NS(=O)(=O)Cc1ccccc1 (stereo not drawn) [III-21] | < 50% | ≥ 10 µM | + (<150) | ≥ 10 µM
11 | COc1cccc2c1CCC2C(=O)NS(=O)(=O)c1ccc2cc(O)ccc2c1 (stereo not drawn) [III-22] | < 50% | ≥ 10 µM | + (<150) | ≥ 10 µM
12 | COc1cccc2c1CCC2C(=O)NS(=O)(=O)c1ccc(C)cc1 (stereo not drawn) [III-23] | < 50% | 3 to 10 µM | ++ (≥150 and <350) | 3 to 10 µM
13 | COc1cccc2c1CCC2C(=O)NS(=O)(=O)c1nnc(NC(C)=O)s1 (stereo not drawn) [III-24] | < 50% | ≥ 10 µM | + (<150) | ≥ 10 µM
14 | COc1cccc2c1CCC2C(=O)NS(=O)(=O)c1cc(C)ccc1C(C)C (stereo not drawn) [III-25] | < 50% | ≥ 10 µM | + (<150) | 3 to 10 µM
15 | COc1cccc2c1CCC2C(=O)NS(=O)(=O)c1ccc(S(C)(=O)=O)cc1 (stereo not drawn) [III-26] | < 50% | ≥ 10 µM | + (<150) | ≥ 10 µM
16 | COc1cccc2c1CCC2C(=O)NS(=O)(=O)c1cccc([N+](=O)[O-])c1 (stereo not drawn) [III-27] | < 50% | ≥ 10 µM | + (<150) | ≥ 10 µM
17 | COc1cccc2c1CCC2C(=O)NS(=O)(=O)c1ccc(Cl)c([N+](=O)[O-])c1 (stereo not drawn) [III-28] | < 50% | ≥ 10 µM | + (<150) | ≥ 10 µM
18 | COc1cccc2c1CCC2C(=O)NS(=O)(=O)c1cc([N+](=O)[O-])ccc1C (stereo not drawn) [III-30] | < 50% | ≥ 10 µM | + (<150) | ≥ 10 µM

Row | Structure (SMILES) | Emax [1] | EC50 [1] | Maximum % activity (with co-corrector) [2] | EC50 [2]
19 | COc1cccc2c1CCC2C(=O)NS(=O)(=O)c1ccc(NC(C)=O)cc1C (stereo not drawn) [III-31] | < 50% | ≥ 10 µM | + (<150) | ≥ 10 µM
20 | COc1cccc2c1CCC2C(=O)NS(=O)(=O)c1ccc(Cl)cc1 (stereo not drawn) [III-32] | < 50% | ≥ 10 µM | + (<150) | ≥ 10 µM
21 | COc1cccc2c1CCC2C(=O)NS(=O)(=O)c1ccc(Cl)cc1[N+](=O)[O-] (stereo not drawn) [III-33] | < 50% | ≥ 10 µM | ++ (≥150 and <350) | < 3 µM
22 | COc1cccc2c1CCC2C(=O)NS(=O)(=O)c1ccc2ccccc2c1 (stereo not drawn) [III-34] | < 50% | ≥ 10 µM | + (<150) | ≥ 10 µM
23 | COc1cccc2c1CCC2C(=O)NS(=O)(=O)c1cccc(Cl)c1 (stereo not drawn) [III-35] | < 50% | ≥ 10 µM | ++ (≥150 and <350) | 3 to 10 µM
24 | COc1cccc2c1CCC2C(=O)NS(=O)(=O)c1ccc(NC(=O)CC(C)=O)cc1 (stereo not drawn) [III-36] | < 50% | ≥ 10 µM | + (<150) | ≥ 10 µM
25 | COc1cccc2c1CCC2C(=O)NS(=O)(=O)c1ccc(Cl)cc1Cl (stereo not drawn) [III-37] | < 50% | ≥ 10 µM | + (<150) | ≥ 10 µM
26 | COc1cccc2c1CCC2C(=O)NS(=O)(=O)c1cc(C)c(N)cc1Cl (stereo not drawn) [III-38] | < 50% | ≥ 10 µM | ++ (≥150 and <350) | 3 to 10 µM
27 | COc1cccc2c1CCC2C(=O)NS(=O)(=O)c1cc(C)ccc1Cl (stereo not drawn) [III-39] | < 50% | ≥ 10 µM | + (<150) | ≥ 10 µM
28 | COc1cccc2c1CCC2C(=O)NS(=O)(=O)c1cc([N+](=O)[O-])ccc1Cl (stereo not drawn) [III-40] | < 50% | ≥ 10 µM | + (<150) | ≥ 10 µM
29 | COc1cccc2c1CCC2C(=O)NS(=O)(=O)c1ccc(NC(C)=O)cc1 (stereo not drawn) [III-41] | < 50% | ≥ 10 µM | + (<150) | ≥ 10 µM
30 | COc1cccc2c1CCC2C(=O)NS(=O)(=O)c1ccc(NC(C)=O)cc1Cl (stereo not drawn) [III-42] | < 50% | ≥ 10 µM | + (<150) | ≥ 10 µM
31 | CCCC(=O)Nc1ccc(S(=O)(=O)NC(=O)C2CCc3c(OC)cccc32)cc1 (stereo not drawn) [III-43] | < 50% | ≥ 10 µM | + (<150) | ≥ 10 µM
32 | COc1cccc2c1CCC2C(=O)NS(=O)(=O)c1c(C)nn(C)c1Cl (stereo not drawn) [III-44] | < 50% | ≥ 10 µM | + (<150) | ≥ 10 µM
33 | COc1cccc2c1CCC2C(=O)NS(=O)(=O)c1c(C)nc(O)nc1O (stereo not drawn) [III-45] | < 50% | ≥ 10 µM | + (<150) | ≥ 10 µM
34 | COc1cccc2c1CCC2C(=O)NS(=O)(=O)c1ccc(C#N)cc1 (stereo not drawn) [III-46] | < 50% | ≥ 10 µM | + (<150) | ≥ 10 µM
35 | COc1cccc2c1CCC2C(=O)NS(=O)(=O)c1ccc2oc(=O)ccc2c1 (stereo not drawn) [III-47] | < 50% | ≥ 10 µM | + (<150) | ≥ 10 µM
36 | CCOC(=O)c1ccc(S(=O)(=O)NC(=O)C2CCc3c(OC)cccc32)cc1 (stereo not drawn) [III-48] | < 50% | ≥ 10 µM | + (<150) | ≥ 10 µM
